Source: publication PMC11676762, “Control of Postharvest Green Mold in Citrus by the Antimicrobial Peptide BP15 and Its Lipopeptides” (Journal of Fungi, 2024)
≈ marks a conversion by molar mass, not a printed value. Where “and” joins values, the source holds several entries; their conditions need not be identical. Identical values can stand only once. Like-named read-outs stand apart in the source and are kept apart here. Marks after values point to notes of the source that are not given here.

What was measured:
[1] = system: P. digitatum mycelia; assay: Mycelial survival assay (MTT); assay type: cell-based, Penicillium digitatum; details: 100 μM peptide, 3 h at 25 °C, then MTT 16 h; mean of triplicate
Procedure: The mycelial survival rate was determined according to by Weerden et al.. A spore suspension (5 × 10^4 CFU/mL) was prepared with 5% PDB and incubated for 24 h at 25 °C. […] The mixtures were cultured at 25 °C for 3 h before the addition of 10 μL of 3-(4,5-dimethylthiazol-2-yl)-2,5-diphenyltetrazolium bromide (MTT; 5 mg/mL; MACKLIN). The plates were then incubated in a dark environment for 16 h, followed by the addition of DMSO (100 μL).

[2] = system: P. digitatum; details: for MFC: 50 μL from mycelium-free well plated on PDA, no pathogen growth; for MFC / MIC: 25 °C; for MIC: lowest peptide concentration completely inhibiting growth for 48 h, spores 1 × 10^4 CFU/mL, 5% PDB, triplicate
Procedure: The experiment was adapted from the method of Jia et al.. A 180 μL spore suspension (1 × 10^4 CFU/mL), containing 5% potato dextrose broth (PDB) by volume, was mixed with 20 μL of peptide solution in a sterile 96-well microplate and thoroughly mixed. The final peptide concentrations were 0.78, 1.56, 3.12, 6.25, 12.5, 25, 50, and 100 μM, with sterile water as the control. The mixtures were cultured in an incubator at 25 °C for 48 h, and the light absorption at OD600nm was measured using an 800TS full-wavelength microplate reader (Bio Tek Instruments, Inc., Winooski, VT, USA). The minimum inhibitory concentration (MIC) was defined as the lowest peptide concentration completely inhibiting fungus growth for 48 h. Then, a 50 μL sample from the mycelium-free well was plated on PDA and left to culture at 25 °C for 48 h. The minimum fungicidal concentration (MFC) was the peptide concentration at which there was no pathogen growth after 48 h.

[3] = system: P. digitatum; assay: Fruit decay test, green mold on mandarins; assay type: in vivo, Penicillium digitatum; details: mean ± SD
Text: This experiment followed the method of Zhou et al. with some adjustments. The effects of three peptides on the control of green mold in citrus in vivo were studied by measuring the incidence rate and spot diameters on the citrus fruit. Mandarins were purchased from a local supermarket and selected for uniform size, ripeness, and a lack of mechanical damage. The mandarins were soaked in 75% alcohol for 30 s and then in 1% NaClO for 30 s, followed by rinsing with sterile water and drying with sterile paper to remove excess surface water. A sterile needle was used to drill holes near the equator (about 3 mm deep), and each mandarin was inoculated with 10 µL of 100 μM concentrations of three peptide solutions and 1 × 10^5 CFU/mL P. digitatum suspension (v/v 1:1), compared with a mixture of equal parts sterile water and P. digitatum suspension. The mandarins were placed in a […] container with sterile wet paper towels in order to preserve their freshness. A humid environment was maintained in the container, and the fruit was stored at room temperature. The incidence rate and spot diameter of the mandarins were measured in accordance with the method of Zhang et al.. Each treatment group contained eight fruits, and each treatment was repeated three times.

[4] = system: P. digitatum mycelia; assay: Sytox Green fluorescence microscopy (membrane permeability); assay type: cell-based, Penicillium digitatum; details: 2 h, Sytox Green 0.2 μM
Procedure: The experiment protocol was adapted from Li et al.. A spore suspension (10^5 CFU/mL) of 90 μL was prepared with 5% PDB and incubated for 24 h at 25 °C. Subsequently, the peptide solution was added to final concentrations of the MIC, the MFC, and 100 μM, and the mixtures were left for 2 h, with sterile water as the control. After incubation, Sytox Green (Molecular Probes; KeyGen Biotech Co., Nanjing, China) was added at 4 μM and thte final concentration was 0.2 μM and was incubated for 5 min in the dark. The treated samples were washed with sterile water, resuspended in 20% glycerol solution, and prepared and observed under a DM3000 fluorescence microscope (Leica, Weztlar, Germany).

[5] = system: sheep red blood cells; details: test range, significantly lower than commercial prochloraz (p < 0.05), results not yet published
[6] = system: P. digitatum genomic DNA; assay: DNA binding gel retardation assay; parameters: species or system Penicillium digitatum; details: peptide:DNA 1:1 (v/v), room temperature 30 min, 1% agarose gel
Procedure: In accordance with Miao et al. with slight adjustments, the gel retardation effect was analyzed. The P. digitatum DNA was extracted according to the operation steps of the TIANGEN plant genome DNA extraction kit. The agarose gel electrophoresis utilized a 1% agarose concentration. […] Electrophoresis was run at 110 V for 25 min, followed by the removal of the rubber plate and placement in the Tanon-2500B (Tanon Science and Technology Co., Ltd., Shanghai, China) for visualization.

[7] = system: P. digitatum; details: against P. digitatum; cited from earlier work
Text: Conidia generated by P. digitatum are disseminated to the surface of fruits via wind, rain, soil dust, and other media. Upon landing on the surface or wound of the fruit, these conidia promptly germinate, leading to fruit decay. […] In the present s ...

[8] = 5 d, 100 μM peptide + spores (1:1), three replicates
[9] = 6 d, 100 μM peptide + spores (1:1), three replicates
[10] = 7 d, 100 μM peptide + spores (1:1), three replicates
[11] = 8 d, 100 μM peptide + spores (1:1), three replicates
[12] = 9 d, 100 μM peptide + spores (1:1), three replicates
[13] = 10 d, 100 μM peptide + spores (1:1), three replicates

Compound	mycelial survival rate [1] [%]	MFC ([2]; 48 h) [µM]	MIC ([2]; OD600nm) [µM]	Spot Diameter [3, 8]	Incidence Rate [3, 9]	Spot Diameter [3, 9]	Incidence Rate [3, 10]	Spot Diameter [3, 10]	Incidence Rate [3, 11]	Spot Diameter [3, 11]	Incidence Rate [3, 12]	Spot Diameter [3, 12]	Incidence Rate [3, 13]	Spot Diameter [3, 13]	SG fluorescence in mycelia ([4]; peptide at 100 μM)	SG fluorescence in mycelia ([4]; peptide at 2 MIC)	SG fluorescence in mycelia ([4]; peptide at MIC)	hemolytic activity [5]	peptide concentration at which DNA bands were no longer visible [6] [µM]	also measured
CCCCCC(=O)N[C@@H](CCCCN)C(=O)N[C@@H](CCCCN)C(=O)N[C@@H](CC(C)C)C(=O)N[C@@H](Cc1ccccc1)C(=O)N[C@@H](CCCCN)C(=O)N[C@@H](CCCCN)C(=O)N[C@H](C(=O)N[C@@H](CC(C)C)C(=O)N[C@@H](CCCCN)C(=O)N[C@H](C(=O)N[C@@H](CC(C)C)C(N)=O)C(C)C)[C@@H](C)CC [HBP15]	16.31	6.25 (≈ 9.09 µg/mL)	3.12 (≈ 4.54 µg/mL)	1.41 ± 0.80 ^c mm	20.83 ± 7.22 ^c %	4.45 ± 0.80 ^c mm	37.50 ± 0.00 ^c %	9.76 ± 0.84 ^c mm	37.50 ± 0.00 ^c %	14.81 ± 1.19 ^c mm	37.50 ± 0.00 ^c %	19.72 ± 1.95 ^c mm	41.67 ± 7.22 ^b %	23.27 ± 3.61 ^c mm	extensive continuous green fluorescence	enhanced fluorescence intensity and continuity	no fluorescence	low hemolysis	25	Incidence Rate ([3]; 5 d, 10 µL of 100 μM peptide + 1 × 10^5 CFU/mL spores (1:1), room temperature, three replicates of eight fruits): 12.50 ± 0.00 ^c %
GHRKKWFW [PAF56, synthetic short cationic antimicrobial peptide (GHRKKWFW), literature comparator]																				MIC [7]: 8 µM
CCCCCCCCCCCC(=O)N[C@@H](CCCCN)C(=O)N[C@@H](CCCCN)C(=O)N[C@@H](CC(C)C)C(=O)N[C@@H](Cc1ccccc1)C(=O)N[C@@H](CCCCN)C(=O)N[C@@H](CCCCN)C(=O)N[C@H](C(=O)N[C@@H](CC(C)C)C(=O)N[C@@H](CCCCN)C(=O)N[C@H](C(=O)N[C@@H](CC(C)C)C(N)=O)C(C)C)[C@@H](C)CC [LBP15]	10.40	6.25 (≈ 9.62 µg/mL)	3.12 (≈ 4.8 µg/mL)	10.80 ± 4.93 ^b mm	70.83 ± 19.09 ^b %	21.23 ± 4.46 ^b mm	80.83 ± 11.54 ^b %	34.00 ± 10.39 ^b mm	80.83 ± 11.54 ^b %	45.60 ± 13.19 ^b mm	80.83 ± 11.54 ^b %	54.08 ± 12.44 ^b mm	87.50% and 87.50 ± 0.00 ^a %	69.6 ± 8.37 ^b mm	extensive continuous green fluorescence	enhanced fluorescence intensity and continuity	weak green fluorescence	low hemolysis	50	inhibitory effect on P. digitatum growth ([2]; at 0.78 and 1.56 μM, 48 h, OD600nm): No obvious inhibitory effect
CC[C@H](C)[C@H](NC(=O)[C@H](CCCCN)NC(=O)[C@H](CCCCN)NC(=O)[C@H](Cc1ccccc1)NC(=O)[C@H](CC(C)C)NC(=O)[C@H](CCCCN)NC(=O)[C@@H](N)CCCCN)C(=O)N[C@@H](CC(C)C)C(=O)N[C@@H](CCCCN)C(=O)N[C@H](C(=O)N[C@@H](CC(C)C)C(N)=O)C(C)C [BP15]		6.25 (≈ 8.48 µg/mL)	3.12 (≈ 4.23 µg/mL)															low hemolysis		
